Test results from patent publication US7655810B2, “Phosphine transition metal complex, method for producing the same, and antitumor agent containing the same” (Nippon Chemical Industrial Co., Ltd., priority 2005, dated 2010).

Assays:
[1] = tested on: HL-60 (human acute myelocytic leukemia cells); test: Evaluation of antitumor activity, MTT viable cell count (modified Mosmann method); type: cell-based; settings: read-out: IC50 (50% inhibitory concentration from viable cell count), HL-60 cells, 24 hours culture, average of at least three measured values
Experimental: Cisplatin was also evaluated as a comparative example by the same method.
HL-60 (human acute myelocytic leukemia cells) was used as cancer cells. The cells were cultured in Rosewell Park Memorial Institute medium (RPMI 1640) supplemented with 10% fetal bovine serum, 1% antibiotic, and an antifungal agent in an atmosphere of 5% carbon dioxide in a moist incubator at 37° C.
The cells were washed with PBS. After the cell count was determined, a suspension (1×10^5 cells/mL) was prepared with the same medium. The suspension was seeded at a density of […] in a sterile 96-well microplate.
The prepared solutions were respectively added to the wells and cultured in the incubator for 24 hours.
The viable cell count was determined by a modified Mosmann method (T. Mosmann, J. Immunol. Method (1983) 65, 55-63). More specifically, a solution of a tetrazolium salt (3,[4,5-dimethylthiazole-2-yl]-2,5-diphenyltetrazolium bromide, MTT) was added to the wells. The wells were cultured for another 3 hours under the same conditions. Formazan crystals formed by the enzyme activity of mitochondria in the cells were dissolved in 0.04 mol/L HCl isopropyl alcohol solution, and the absorbance of each well was measured at 595 nm with a microplate reader (Bio-Rad 550). The background noises were canceled by subtracting the absorbance at 630 nm from the absorbance at 595 nm to obtain a viable cell count. […] For the calculation for IC50, at least three measured values obtained under the same conditions were averaged.

[2] = tested on: female Sprauge-Dawley SPF rats; test: Toxicity test by single oral administration to rats; type: in vivo, rat
Experimental: After female Sprauge-Dawley SPF rats (CrJ: CD (SD)) were quarantined and acclimated for about a week, healthy 8-week-old rats were selected in groups of five rats. The rats was fasted overnight before administration, and single oral doses of 20, 50, 100, and 300 mg/kg of the phosphine gold complex, and 10, 20, 50, and 100 mg/kg of cisplatin dissolved in corn oil were administrated the respective rats. The rats were observed 10 and 30 minutes and 1, 2, and 4 hours after administration, and further observed daily until the 14th day.

Substance | IC50 [1] [nM] | Change in general conditions, body weight and internal organs ([2]; single oral administration, over the period of the test (14 days)) | Survival of rats ([2]; single oral doses of 20, 50, 100 and 300 mg/kg, until the 14th day)
Bis(1,2-bis((2R,5R)-2,5-(dimethylphosphorano)benzene))gold (I) Chloride [Example 4] | 542 | no specific change in general conditions, body weight, and internal organs was observed | did not die even at the 14th day
Bis(1,2-bis((2S,5S)-2,5-(dimethylphosphorano)benzene))gold (I) Chloride [Example 3] | 3550 | – | –
Bis((+)-1,2-bis((2R,5R)-2,5-dimethylphosphorano)ethane)gold (I) Chloride [Example 1] | 2750 | – | –
Bis((−)-1,2-bis((2S,5S)-2,5-dimethylphosphorano)ethane)gold (I) Chloride [Example 2] | 1660 | – | –
